Here are results for five molecules from patent publication US20220257620A1, “USE OF CERTAIN PHOSPHATIDYLCHOLINES CONTAINING LONG CHAIN POLYUNSATURATED FATTY ACIDS AS NEUROPROTECTIVE AGENTS” (KANNALIFE SCIENCES, INC., priority 2019, published 2022).

The test system of test [1] is dissociated hippocampal cultures (primary neurons). Description: Neuronal viability assay (CFDA), neuroprotection from 30 mM ethanol. The format is cell-based, rat. To be noted: Table 3, 5 hour test period, co-treatment with 30 mM ethanol; for EC50: read-out: CFDA (EC50 + SE). The text has this: Pre-coated poly-D-lysine coated plates will be used because of the adherence and survival of hippocampal neurons and glia on this matrix support.
Carboxyfluorescein (CFDA) was used a vital stain for all neuroprotection studies. With the use of the CytoFluor fluorimeter, the CFDA assay was employed to assess the viability of neurons. […] Neuronal specificity is obtained relative to astrocytes because the cleaved dye is extruded extracellularlly by glia with time, while dye in neurons remains intracellular.

Test [2] relates to dissociated hippocampal cultures. Description: Cell death assay (propidium iodide), protection from 30 mM ethanol. The format is cell-based, rat. To be noted: Table 3, 5 hour test period, co-treatment with 30 mM ethanol; for IC50: read-out: Propidium Iodide (IC50 + SE).

On to PC 16:0-18:2 [reference compound], for which the “CFDA (EC50 + SE)” value in test [1] is “Inactive”. The “Propidium Iodide (IC50 + SE)” value in test [2] is “Inactive”.

The EC50 is the concentration giving half of the maximal effect. For orientation: IC50 means the concentration that gives 50% inhibition. `CC/C=C\C/C=C\C/C=C\CCCCCCCC(=O)OC[C@H](COP(=O)([O-])OCC[N+](C)(C)C)OC(=O)CCCCCCC/C=C\C/C=C\C/C=C\CC` [PC 18:3-18:3, 1,2-dilinolenoyl-phosphatidylcholine]: in test [1], the EC50 was found to be 0.202 ± 0.022 nM. The IC50 in test [2] came to 0.204 ± 0.088 nM.

`CCCCC/C=C\C/C=C\CCCCCCCC(=O)OCC(COP(=O)([O-])OCC[N+](C)(C)C)OC(=O)CCCCCCC/C=C\C/C=C\CCCCC` (stereo not shown) [PC 18:2-18:2, 1,2-dilinoleoyl-phosphatidylcholine]: the concentration giving a half-maximal response (EC50) in test [1] was found to be 0.067 ± 0.022 nM. Further, in test [2], the IC50 was 0.044 ± 0.015 nM.

With `CC/C=C\C/C=C\C/C=C\C/C=C\C/C=C\C/C=C\CCC(=O)OC[C@H](COP(=O)([O-])OCC[N+](C)(C)C)OC(=O)CC/C=C\C/C=C\C/C=C\C/C=C\C/C=C\C/C=C\CC` [PC 22:6-22:6], the concentration for a half-maximal effect (EC50) in test [1] was 0.283 ± 0.046 nM. The IC50 in test [2] was 0.21 ± 0.053 nM.

Regarding `CCCCC/C=C\C/C=C\C/C=C\C/C=C\CCCC(=O)OC[C@H](COP(=O)([O-])OCC[N+](C)(C)C)OC(=O)CCC/C=C\C/C=C\C/C=C\C/C=C\CCCCC` [PC 20:4-20:4, 1,2-diarachidonyl-phosphatidylcholine], in test [1], the 50% effective concentration (EC50) came to 0.001 ± 8e-05 nM. The IC50 in test [2] stood at 0.0012 ± 0.00012 nM.
